From patent US20050197350A1, “Novel quinoline, tetrahydroquinazoline, and pyrimidine derivatives and methods of treatment related to the use thereof” (TAISHO PHARMACEUTICAL CO., LTD., priority 2003, published 2005)

tested on: MCH receptors; assay: MCH receptor activity class (method not given); conditions: activity class per percent of control at 10^-7 M or IC50

SMILES	class
Cc1sc(-c2ccccc2)nc1CC(=O)N[C@H]1CC[C@@H](Nc2nc3c(c(N(C)C)n2)CCCC3)CC1 [compound 987]	3 (Class 3 The value of percent of control at 10^−7 M was more than 60% or the value of IC50 was more than 200 nM.)
COc1ccc(CSC2(CC(=O)N[C@H]3CC[C@@H](Nc4nc5c(c(N(C)C)n4)CCCC5)CC3)CCCCC2)cc1 [compound 989]	3 (Class 3 The value of percent of control at 10^−7 M was more than 60% or the value of IC50 was more than 200 nM.)
COc1ccc2c(CC(=O)N[C@H]3CC[C@@H](Nc4nc5c(c(N(C)C)n4)CCCC5)CC3)cc(=O)oc2c1 [compound 990]	1 (Class 1: The value of percent of control at 10^−7 M was less than 40% or the value of IC50 was less than 50 nM.)
Cc1cc(C)c(NC(=O)Nc2ccc(OC(F)(F)F)cc2)c(C(=O)N[C@H]2CC[C@@H](Nc3nc4c(c(N(C)C)n3)CCCC4)CC2)c1 [compound 993]	1 (Class 1: The value of percent of control at 10^−7 M was less than 40% or the value of IC50 was less than 50 nM.)
CN(C)c1nc(N[C@H]2CC[C@@H](NC(=O)c3cc(Cl)cc(Cl)c3NC(=O)C#Cc3ccccc3)CC2)nc2c1CCCC2 [compound 994]	1 (Class 1: The value of percent of control at 10^−7 M was less than 40% or the value of IC50 was less than 50 nM.)
CN(C)c1nc(N[C@H]2CC[C@@H](NC(=O)c3cccc(-n4c(-c5ccc(Br)cc5)cc5c4CC(C)(C)CC5=O)c3)CC2)nc2c1CCCC2 [compound 995]	3 (Class 3 The value of percent of control at 10^−7 M was more than 60% or the value of IC50 was more than 200 nM.)
CN(C)c1nc(N[C@H]2CC[C@@H](NC(=O)Cc3ccccc3C(=O)Nc3ccc(Cl)cc3Cl)CC2)nc2c1CCCC2 [compound 999]	3 (Class 3 The value of percent of control at 10^−7 M was more than 60% or the value of IC50 was more than 200 nM.)
Cc1c(C(=O)N[C@H]2CC[C@@H](Nc3nc4c(c(N(C)C)n3)CCCC4)CC2)cc(-c2ccccc2)n1CCCN1CCOCC1 [compound 1000]	1 (Class 1: The value of percent of control at 10^−7 M was less than 40% or the value of IC50 was less than 50 nM.)
CN(C)c1nc(N[C@H]2CC[C@@H](NC(=O)CCCc3ccc([N+](=O)[O-])cc3)CC2)nc2c1CCCC2 [compound 1001]	1 (Class 1: The value of percent of control at 10^−7 M was less than 40% or the value of IC50 was less than 50 nM.)
CN(C)c1nc(N[C@H]2CC[C@@H](NC(=O)/C=C/c3ccccc3[N+](=O)[O-])CC2)nc2c1CCCC2 [compound 1002]	3 (Class 3 The value of percent of control at 10^−7 M was more than 60% or the value of IC50 was more than 200 nM.)
CN(C)c1nc(N[C@H]2CC[C@@H](NC(=O)Cc3cccc(Oc4ccccc4)c3)CC2)nc2c1CCCC2 [compound 1003]	2 (Class 2: The value of percent of control at 10^−7 M was from 40% to 60% or the value of IC′50 was from 50 nM to 200 nM.)
CN(C)c1nc(N[C@H]2CC[C@@H](NC(=O)Cc3ccc(Oc4ccccc4)cc3)CC2)nc2c1CCCC2 [compound 1004]	2 (Class 2: The value of percent of control at 10^−7 M was from 40% to 60% or the value of IC′50 was from 50 nM to 200 nM.)
CN(C)c1nc(N[C@H]2CC[C@@H](NC(=O)Cc3c(-c4ccccc4)[nH]c4ccccc34)CC2)nc2c1CCCC2 [compound 1005]	1 (Class 1: The value of percent of control at 10^−7 M was less than 40% or the value of IC50 was less than 50 nM.)
CN(C)c1nc(N[C@H]2CC[C@@H](NC(=O)c3cccc(Oc4ccccc4)c3)CC2)nc2c1CCCC2 [compound 1007]	1 (Class 1: The value of percent of control at 10^−7 M was less than 40% or the value of IC50 was less than 50 nM.)
CN(C)c1nc(N[C@H]2CC[C@@H](NC(=O)c3ccccc3CCc3ccccc3)CC2)nc2c1CCCC2 [compound 1008]	3 (Class 3 The value of percent of control at 10^−7 M was more than 60% or the value of IC50 was more than 200 nM.)
CN(C)c1nc(N[C@H]2CC[C@@H](NC(=O)c3cccc(C(=O)c4ccccc4)c3)CC2)nc2c1CCCC2 [compound 1009]	3 (Class 3 The value of percent of control at 10^−7 M was more than 60% or the value of IC50 was more than 200 nM.)
CCSC(C(=O)N[C@H]1CC[C@@H](Nc2nc3c(c(N(C)C)n2)CCCC3)CC1)(c1ccccc1)c1ccccc1 [compound 1010]	2 (Class 2: The value of percent of control at 10^−7 M was from 40% to 60% or the value of IC′50 was from 50 nM to 200 nM.)
CN(C)c1nc(N[C@H]2CC[C@@H](NC(=O)c3ccccc3Sc3ccccc3C#N)CC2)nc2c1CCCC2 [compound 1011]	3 (Class 3 The value of percent of control at 10^−7 M was more than 60% or the value of IC50 was more than 200 nM.)
COc1cc(CC(=O)N[C@H]2CC[C@@H](Nc3nc4c(c(N(C)C)n3)CCCC4)CC2)ccc1OCc1ccccc1 [compound 1012]	3 (Class 3 The value of percent of control at 10^−7 M was more than 60% or the value of IC50 was more than 200 nM.)
C[C@@H](NC(=O)c1ccccc1C(=O)N[C@H]1CC[C@@H](Nc2nc3c(c(N(C)C)n2)CCCC3)CC1)c1cccc2ccccc12 [compound 1013]	3 (Class 3 The value of percent of control at 10^−7 M was more than 60% or the value of IC50 was more than 200 nM.)

SMILES	class
C[C@H](C(=O)N[C@H]1CC[C@@H](Nc2nc3c(c(N(C)C)n2)CCCC3)CC1)c1cccc(C(=O)c2ccccc2)c1 [compound 1014]	3 (Class 3 The value of percent of control at 10^−7 M was more than 60% or the value of IC50 was more than 200 nM.)
C[C@@H](c1ccccc1)N(C(=O)c1ccccc1C(=O)N[C@H]1CC[C@@H](Nc2nc3c(c(N(C)C)n2)CCCC3)CC1)[C@@H](C)c1ccccc1 [compound 1015]	1 (Class 1: The value of percent of control at 10^−7 M was less than 40% or the value of IC50 was less than 50 nM.)
C[C@H](C(=O)N[C@H]1CC[C@@H](Nc2nc3c(c(N(C)C)n2)CCCC3)CC1)c1ccc(-c2ccccc2)c(F)c1 [compound 1016]	2 (Class 2: The value of percent of control at 10^−7 M was from 40% to 60% or the value of IC′50 was from 50 nM to 200 nM.)
CN(C)c1nc(N[C@H]2CC[C@@H](NC(=O)CCC(=O)c3cccs3)CC2)nc2c1CCCC2 [compound 1021]	3 (Class 3 The value of percent of control at 10^−7 M was more than 60% or the value of IC50 was more than 200 nM.)
CN(C)c1nc(N[C@H]2CC[C@@H](NC(=O)CCCc3cccs3)CC2)nc2c1CCCC2 [compound 1022]	3 (Class 3 The value of percent of control at 10^−7 M was more than 60% or the value of IC50 was more than 200 nM.)
CN(C)c1nc(N[C@H]2CC[C@@H](NC(=O)COc3c(Cl)cc(Cl)cc3Cl)CC2)nc2c1CCCC2 [compound 1023]	3 (Class 3 The value of percent of control at 10^−7 M was more than 60% or the value of IC50 was more than 200 nM.)
CN(C)c1nc(N[C@H]2CC[C@@H](NC(=O)Cc3c[nH]c4ccc(OCc5ccccc5)cc34)CC2)nc2c1CCCC2 [compound 1024]	3 (Class 3 The value of percent of control at 10^−7 M was more than 60% or the value of IC50 was more than 200 nM.)
CN(C)c1nc(N[C@H]2CC[C@@H](NC(=O)c3ccccc3C(=O)c3cccc4ccccc34)CC2)nc2c1CCCC2 [compound 1025]	3 (Class 3 The value of percent of control at 10^−7 M was more than 60% or the value of IC50 was more than 200 nM.)
COc1ccc(C(=O)N[C@H]2CC[C@@H](Nc3nc4c(c(N(C)C)n3)CCCC4)CC2)cc1OCc1ccccc1 [compound 1026]	1 (Class 1: The value of percent of control at 10^−7 M was less than 40% or the value of IC50 was less than 50 nM.)
Cc1c(C(=O)N[C@H]2CC[C@@H](Nc3nc4c(c(N(C)C)n3)CCCC4)CC2)cc(-c2ccccc2)n1-c1ccccc1 [compound 1027]	2 (Class 2: The value of percent of control at 10^−7 M was from 40% to 60% or the value of IC′50 was from 50 nM to 200 nM.)
Cc1c(C(=O)N[C@H]2CC[C@@H](Nc3nc4c(c(N(C)C)n3)CCCC4)CC2)cc(-c2ccccc2)n1CCSCc1c(F)cccc1Cl [compound 1028, 1-{2-[(2-chloro-6-fluorobenzyl)thio]ethyl}-N-(cis-4-{[4-(dimethy-lamino)-5,6,7,8-tetrahydroquinazolin-2-yl]amino}-cyclohexyl)-2-methyl-5-phenyl-1H-pyrrole-3-carboxamide]	2 (Class 2: The value of percent of control at 10^−7 M was from 40% to 60% or the value of IC′50 was from 50 nM to 200 nM.)
CN(C)c1nc(N[C@H]2CC[C@@H](NC(=O)c3c4ccccc4cc4ccccc34)CC2)nc2c1CCCC2 [compound 1029]	3 (Class 3 The value of percent of control at 10^−7 M was more than 60% or the value of IC50 was more than 200 nM.)
CN(C)c1nc(N[C@H]2CC[C@@H](NC(=O)c3ccccc3Oc3ccccc3)CC2)nc2c1CCCC2 [compound 1030]	1 (Class 1: The value of percent of control at 10^−7 M was less than 40% or the value of IC50 was less than 50 nM.)
CN(C)c1nc(N[C@H]2CC[C@@H](NC(=O)c3ccccc3-c3ccccc3)CC2)nc2c1CCCC2 [compound 1031]	3 (Class 3 The value of percent of control at 10^−7 M was more than 60% or the value of IC50 was more than 200 nM.)
CN(C)c1nc(N[C@H]2CC[C@@H](NC(=O)CC(c3ccccc3)c3ccccc3)CC2)nc2c1CCCC2 [compound 1032]	3 (Class 3 The value of percent of control at 10^−7 M was more than 60% or the value of IC50 was more than 200 nM.)
CN(C)c1nc(N[C@H]2CC[C@@H](NC(=O)c3cc(-c4ccccc4)nc4ccccc34)CC2)nc2c1CCCC2 [compound 1033]	2 (Class 2: The value of percent of control at 10^−7 M was from 40% to 60% or the value of IC′50 was from 50 nM to 200 nM.)
C[C@H](NC(=O)c1ccccc1C(=O)N[C@H]1CC[C@@H](Nc2nc3c(c(N(C)C)n2)CCCC3)CC1)c1ccccc1 [compound 1034]	3 (Class 3 The value of percent of control at 10^−7 M was more than 60% or the value of IC50 was more than 200 nM.)
Cc1ccc(C(=O)c2ccccc2C(=O)N[C@H]2CC[C@@H](Nc3nc4c(c(N(C)C)n3)CCCC4)CC2)cc1 [compound 1035]	3 (Class 3 The value of percent of control at 10^−7 M was more than 60% or the value of IC50 was more than 200 nM.)
CN(C)c1nc(N[C@H]2CC[C@@H](NC(=O)c3ccccc3COc3ccccc3)CC2)nc2c1CCCC2 [compound 1036]	3 (Class 3 The value of percent of control at 10^−7 M was more than 60% or the value of IC50 was more than 200 nM.)
